Laboratory results taken from patent US5541217A, “4-arylcyclopenta[c]pyrrole analgesics” (Ortho Pharmaceutical Corporation, priority 1995, dated 1996).

Test system: acetylcholine-bromide induced abdominal constriction response
Test: Mouse Acetylcholine Bromide-Induced Abdominal Constriction Assay
Type: in vivo
Details: 30 min before i.p. 5.5 mg/kg acetylcholine bromide, 10 min observation

SMILES | % Inhibition at 30 mg/kg (po) | % Inhibition at 30 mg/kg (sc)
CN1C[C@H]2CC[C@](O)(c3ccccc3)[C@H]2C1 (relative stereo) [Cp-1] | 87% | 
CN1C[C@H]2CC[C@@H](c3cccc(C(F)(F)F)c3)[C@H]2C1 (relative stereo) [Cp-6] |  | 87%
CN1C[C@H]2CC[C@](O)(c3cccc(C(F)(F)F)c3)[C@H]2C1 (relative stereo) [Cp-3] | 87% | 
CN1C[C@H]2CC[C@@H](c3ccccc3)[C@H]2C1 (relative stereo) [Cp-4] |  | 100%
CN1C[C@H]2CC[C@@H](c3ccc(F)cc3)[C@H]2C1 (relative stereo) [Cp-5] | 87% | 
CN1C[C@H]2CC[C@](O)(c3ccc(F)cc3)[C@H]2C1 (relative stereo) [Cp-2] | 87% | 
CN1C[C@H]2CC[C@H](c3ccccc3)[C@H]2C1 (relative stereo) [Cp-7] |  | 100%
